Results reported in patent publication US6465457B1 (priority 1991, dated 2002).
Where two headings read alike, the source gives them in different places.

What was measured:
Type in all cases: in vivo
[1] = test system: Plasmopara viticola (Vines); test: Foliar fungal disease test on plants: Plasmopara viticola (Vines); settings: one or two days before inoculation
[2] = test system: Phytophthora infestans (Tomatoes); settings: one or two days before inoculation
[3] = test system: Erysiphe graminis tritici (Wheat); test: Foliar fungal disease test on plants: Erysiphe graminis tritici (Wheat); settings: plants inoculated 24 hours before treatment
Septoria nodorum (Wheat) = test: Foliar fungal disease test on plants: Septoria nodorum (Wheat); settings: one or two days before inoculation
[4] = test system: Pyricularia oryzae (Rice); settings: one or two days before inoculation
[5] = test system: Thanatephorus cucumeries (Rice); test: Foliar fungal disease test on plants: Thanatephorus cucumeries (Rice); settings: one or two days before inoculation
[6] = test system: Venturia inaequalis (Apples); test: Foliar fungal disease test on plants: Venturia inaequalis (Apples); settings: one or two days before inoculation
[7] = test system: Puccinia recondita (Wheat); test: Foliar fungal disease test on plants: Puccinia recondita (Wheat)
[8] = 10 ppm foliar spray only, plants inoculated with Puccinia recondita 48 hours before treatment
[9] = 100 ppm a.i. foliar spray or root drench (approx. 40 ppm in dry soil)
[10] = 100 ppm a.i. foliar spray or root drench, plants inoculated with Puccinia recondita 48 hours before treatment

Compound	POCO (Percentage of Control) disease level, Plasmopara viticola (Vines) ([1]; 10 ppm foliar spray only)	POCO (Percentage of Control) disease level, Phytophthora infestans (Tomatoes) ([2]; 10 ppm foliar spray only)	POCO (Percentage of Control) disease level, Erysiphe graminis tritici (Wheat) ([3]; 10 ppm foliar spray only)	POCO (Percentage of Control) disease level, Septoria nodorum (Wheat) (Septoria nodorum (Wheat); 10 ppm foliar spray only)	POCO (Percentage of Control) disease level, Pyricularia oryzae (Rice) ([4]; 10 ppm foliar spray only)	POCO (Percentage of Control) disease level, Thanatephorus cucumeries (Rice) ([5]; 10 ppm foliar spray only)	POCO (Percentage of Control) disease level, Venturia inaequalis (Apples) ([6]; 10 ppm foliar spray only)	POCO (Percentage of Control) disease level, Puccinia recondita (Wheat) [7, 8]	POCO (Percentage of Control) disease level, Plasmopara viticola (Vines) [1, 9]	POCO (Percentage of Control) disease level, Phytophthora infestans (Tomatoes) [2, 9]	POCO (Percentage of Control) disease level, Erysiphe graminis tritici (Wheat) [3, 9]	POCO (Percentage of Control) disease level, Septoria nodorum (Wheat) (Septoria nodorum (Wheat); [9])	POCO (Percentage of Control) disease level, Pyricularia oryzae (Rice) [4, 9]	POCO (Percentage of Control) disease level, Thanatephorus cucumeries (Rice) [5, 9]	POCO (Percentage of Control) disease level, Venturia inaequalis (Apples) [6, 9]	POCO (Percentage of Control) disease level, Puccinia recondita (Wheat) [7, 10]	POCO (Percentage of Control) disease level, Puccinia recondita (Wheat) ([7]; 10 ppm foliar spray only, one or two days before inoculation)
COC=C(C(=O)OC)c1ccccc1COC(=O)N(CC(F)F)c1cccc([N+](=O)[O-])c1 [6 (5)]	90 (90 and 94 = 60.1-100% disease present)	90 (90 and 94 = 60.1-100% disease present)	20 (20 and 24 = 10.1-20% disease present)	90 (90 and 94 = 60.1-100% disease present)	60 (60 = 30.1-60% disease present)	90 (90 and 94 = 60.1-100% disease present)	0 (0 = 0% disease present)	90+ (90 and 94 = 60.1-100% disease present)	–	–	–	–	–	–	–	–	–
COC=C(C(=O)OC)c1ccccc1COC(=S)Nc1cccc(OC)c1 [7 (6)]	60 (60 = 30.1-60% disease present)	90 (90 and 94 = 60.1-100% disease present)	0 (0 = 0% disease present)	90 (90 and 94 = 60.1-100% disease present)	10 (10 = 5.1-10% disease present)	30 (30 = 20.1-30% disease present)	60 (60 = 30.1-60% disease present)	0+ (0 = 0% disease present)	–	–	–	–	–	–	–	–	–
COC=C(C(=O)OC)c1ccccc1COC(=O)Nc1cccc(F)c1 [8 (1)]	90 (90 and 94 = 60.1-100% disease present)	90 (90 and 94 = 60.1-100% disease present)	60 (60 = 30.1-60% disease present)	90 (90 and 94 = 60.1-100% disease present)	10 (10 = 5.1-10% disease present)	90 (90 and 94 = 60.1-100% disease present)	0 (0 = 0% disease present)	0+ (0 = 0% disease present)	–	–	–	–	–	–	–	–	–
COC=C(C(=O)OC)c1ccccc1COC(=O)N(C)c1cccc(F)c1 [8 (2)]	–	–	–	–	–	–	–	–	0 (0 = 0% disease present)	0 (0 = 0% disease present)	0 (0 = 0% disease present)	0 (0 = 0% disease present)	0 (0 = 0% disease present)	0 (0 = 0% disease present)	0 (0 = 0% disease present)	0+ (0 = 0% disease present)	–
COC=C(C(=O)OC)c1ccccc1COC(=S)Nc1cccc(F)c1 [8 (6)]	60 (60 = 30.1-60% disease present)	90 (90 and 94 = 60.1-100% disease present)	90 (90 and 94 = 60.1-100% disease present)	90 (90 and 94 = 60.1-100% disease present)	30 (30 = 20.1-30% disease present)	90 (90 and 94 = 60.1-100% disease present)	60 (60 = 30.1-60% disease present)	–	–	–	–	–	–	–	–	–	90 (90 and 94 = 60.1-100% disease present)
COC=C(C(=O)OC)c1ccccc1COC(=O)N(Cc1ccccc1)c1cccc(F)c1 [8 (97)]	–	–	–	–	–	–	–	–	0 (0 = 0% disease present)	90 (90 and 94 = 60.1-100% disease present)	90 (90 and 94 = 60.1-100% disease present)	90 (90 and 94 = 60.1-100% disease present)	30 (30 = 20.1-30% disease present)	90 (90 and 94 = 60.1-100% disease present)	30 (30 = 20.1-30% disease present)	90+ (90 and 94 = 60.1-100% disease present)	–
COC=C(C(=O)OC)c1ccccc1COC(=O)N(C)c1cccc(SC)c1 [10 (2)]	–	–	–	–	–	–	–	–	0 (0 = 0% disease present)	20 (20 and 24 = 10.1-20% disease present)	0 (0 = 0% disease present)	0 (0 = 0% disease present)	0 (0 = 0% disease present)	20 (20 and 24 = 10.1-20% disease present)	0 (0 = 0% disease present)	0+ (0 = 0% disease present)	–
COC=C(C(=O)OC)c1ccccc1COC(=O)Nc1ccccc1Cl [12 (1)]	–	–	–	–	–	–	–	–	0 (0 = 0% disease present)	30 (30 = 20.1-30% disease present)	0 (0 = 0% disease present)	10 (10 = 5.1-10% disease present)	5 (5 = 3.1-5% disease present)	30 (30 = 20.1-30% disease present)	0 (0 = 0% disease present)	10+ (10 = 5.1-10% disease present)	–
COC=C(C(=O)OC)c1ccccc1COC(=O)N(C)c1ccccc1Cl [12 (2)]	–	–	–	–	–	–	–	–	0 (0 = 0% disease present)	5 (5 = 3.1-5% disease present)	0 (0 = 0% disease present)	3 (3 = 1.1-3% disease present)	10 (10 = 5.1-10% disease present)	0 (0 = 0% disease present)	0 (0 = 0% disease present)	30+ (30 = 20.1-30% disease present)	–
COC=C(C(=O)OC)c1ccccc1COC(=O)N(C(C)=O)c1ccccc1Cl [12 (99)]	–	–	–	–	–	–	–	–	0 (0 = 0% disease present)	90 (90 and 94 = 60.1-100% disease present)	30 (30 = 20.1-30% disease present)	10 (10 = 5.1-10% disease present)	10 (10 = 5.1-10% disease present)	90 (90 and 94 = 60.1-100% disease present)	5 (5 = 3.1-5% disease present)	30+ (30 = 20.1-30% disease present)	–
COC=C(C(=O)OC)c1ccccc1COC(=O)N(C)c1ccc(F)cc1 [13 (2)]	–	–	–	–	–	–	–	–	0 (0 = 0% disease present)	0 (0 = 0% disease present)	0 (0 = 0% disease present)	0 (0 = 0% disease present)	0 (0 = 0% disease present)	0 (0 = 0% disease present)	0 (0 = 0% disease present)	0+ (0 = 0% disease present)	–
CCN(C(=O)OCc1ccccc1C(=COC)C(=O)OC)c1ccc(F)cc1 [13 (3)]	–	–	–	–	–	–	–	–	0 (0 = 0% disease present)	0 (0 = 0% disease present)	0 (0 = 0% disease present)	0 (0 = 0% disease present)	0 (0 = 0% disease present)	0 (0 = 0% disease present)	0 (0 = 0% disease present)	0+ (0 = 0% disease present)	–
COC=C(C(=O)OC)c1ccccc1COC(=O)Nc1ccccc1OC [16 (1)]	–	–	–	–	–	–	–	–	0 (0 = 0% disease present)	90 (90 and 94 = 60.1-100% disease present)	90 (90 and 94 = 60.1-100% disease present)	90 (90 and 94 = 60.1-100% disease present)	20 (20 and 24 = 10.1-20% disease present)	90 (90 and 94 = 60.1-100% disease present)	60 (60 = 30.1-60% disease present)	90+ (90 and 94 = 60.1-100% disease present)	–
